From ChEMBL document CHEMBL1201861, “Genomics of Drug Sensitity in Cancer screening data, Wellcome Trust Sanger Institute”

Key:
DG-75 = assay: cells; type: functional, cell-based; conditions: Homo sapiens;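 further: growth inhibition of DG-75 cells, read out with a cell viability assay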
Description: SANGER: Inhibition of human DG-75 cell growth in a cell viability assay.

DMS-153 = assay: cells; type: functional, cell-based; conditions: Homo sapiens
Description: SANGER: Inhibition of human DMS-153 cell growth in a cell viability assay.

EB-3 = assay: cells; type: functional, cell-based; conditions: Homo sapiens;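 further: human EB-3 cells, growth inhibition read out via a cell viability assay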
Description: SANGER: Inhibition of human EB-3 cell growth in a cell viability assay.

EVSA-T = assay: cells; type: functional, cell-based, Homo sapiens; conditions: Homo sapiens, EVSA-T;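 further: growth inhibition of EVSA-T cells, read out with a cell viability assay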
Description: SANGER: Inhibition of human EVSA-T cell growth in a cell viability assay.

G-361 = assay: cells; type: functional, cell-based, Homo sapiens; conditions: Homo sapiens, G-361
GDM-1 = assay: cells; type: functional, cell-based; conditions: Homo sapiens;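 further: cell viability readout used to measure growth inhibition of human GDM-1 cells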
Description: SANGER: Inhibition of human GDM-1 cell growth in a cell viability assay.

HT55 = assay: cells; type: functional, cell-based, Homo sapiens; conditions: Homo sapiens, HT55;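 further: cell viability readout measuring growth inhibition of human HT55 cells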
Description: SANGER: Inhibition of human HT55 cell growth in a cell viability assay.

IM-9 = assay: SANGER: Inhibition of human IM-9 cell growth in a cell viability assay.; type: functional, cell-based
K052 = assay: cells; type: functional, cell-based; conditions: Homo sapiens;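 further: Read-out from a cell viability assay, IC50 reflecting suppression of K052 cell growth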
Description: SANGER: Inhibition of human K052 cell growth in a cell viability assay.

KMS-12-PE = assay: cells; type: functional, cell-based; conditions: Homo sapiens;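 further: growth inhibition of human KMS-12-PE cells, measured with a cell viability assay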
Description: SANGER: Inhibition of human KMS-12-PE cell growth in a cell viability assay.

LB647-SCLC = assay: cells; type: functional, cell-based; conditions: Homo sapiens;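 further: cell growth inhibition, read out by a viability assay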
Description: SANGER: Inhibition of human LB647-SCLC cell growth in a cell viability assay.

LOUCY = assay: cells; type: functional, cell-based; conditions: Homo sapiens;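 further: growth inhibition of human LOUCY cells, read out with a cell viability assay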
Description: SANGER: Inhibition of human LOUCY cell growth in a cell viability assay.

LU-165 = assay: cells; type: functional, cell-based; conditions: Homo sapiens
Description: SANGER: Inhibition of human LU-165 cell growth in a cell viability assay.

MEL-JUSO = assay: cells; type: functional, cell-based, Homo sapiens; conditions: Homo sapiens, MEL-JUSO;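 further: growth inhibition of human MEL-JUSO cells, read out with a cell viability assay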
Description: SANGER: Inhibition of human MEL-JUSO cell growth in a cell viability assay.

MHH-CALL-2 = assay: cells; type: functional, cell-based; conditions: Homo sapiens;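 further: growth inhibition of the cell line, read out in a cell viability assay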
Description: SANGER: Inhibition of human MHH-CALL-2 cell growth in a cell viability assay.

MONO-MAC-6 = assay: cells; type: functional, cell-based; conditions: Homo sapiens;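 further: cell viability assay measuring growth inhibition of human MONO-MAC-6 cells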
Description: SANGER: Inhibition of human MONO-MAC-6 cell growth in a cell viability assay.

NB1 = assay: cells; type: functional, cell-based; conditions: Homo sapiens;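 further: reduction of NB1 cell proliferation, read out with a viability assay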
Description: SANGER: Inhibition of human NB1 cell growth in a cell viability assay.

NCI-H1417 = assay: cells; type: functional, cell-based; conditions: Homo sapiens;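 further: human NCI-H1417 cells, growth inhibition determined with a cell viability readout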
Description: SANGER: Inhibition of human NCI-H1417 cell growth in a cell viability assay.

NCI-H1436 = assay: cells; type: functional, cell-based; conditions: Homo sapiens;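 further: growth suppression of human NCI-H1436 cells, determined with a cell viability readout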
Description: SANGER: Inhibition of human NCI-H1436 cell growth in a cell viability assay.

NCI-H1522 = assay: cells; type: functional, cell-based; conditions: Homo sapiens;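 further: growth inhibition of NCI-H1522 cells, read out with a cell viability assay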
Description: SANGER: Inhibition of human NCI-H1522 cell growth in a cell viability assay.

NCI-H1694 = assay: cells; type: functional, cell-based; conditions: Homo sapiens;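 further: cell viability assay measuring inhibition of growth in human NCI-H1694 cells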
Description: SANGER: Inhibition of human NCI-H1694 cell growth in a cell viability assay.

NCI-H1703 = assay: cells; type: functional, cell-based, Homo sapiens; conditions: Homo sapiens, NCI-H1703;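 further: growth inhibition of NCI-H1703 cells, read out via a cell viability assay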
Description: SANGER: Inhibition of human NCI-H1703 cell growth in a cell viability assay.

NCI-H2009 = assay: cells; type: functional, cell-based, Homo sapiens; conditions: Homo sapiens, NCI-H2009;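 further: cell viability assay measuring inhibition of NCI-H2009 cell growth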
Description: SANGER: Inhibition of human NCI-H2009 cell growth in a cell viability assay.

NCI-H2081 = assay: cells; type: functional, cell-based; conditions: Homo sapiens;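 further: growth inhibition of human NCI-H2081 cells, read out with a cell viability assay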
Description: SANGER: Inhibition of human NCI-H2081 cell growth in a cell viability assay.

NCI-H2141 = assay: cells; type: functional, cell-based; conditions: Homo sapiens;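 further: growth inhibition of human NCI-H2141 cells, read out with a cell viability assay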
Description: SANGER: Inhibition of human NCI-H2141 cell growth in a cell viability assay.

NCI-H2171 = assay: cells; type: functional, cell-based; conditions: Homo sapiens;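 further: growth inhibition of human NCI-H2171 cells, read out by a cell viability assay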
Description: SANGER: Inhibition of human NCI-H2171 cell growth in a cell viability assay.

NCI-H345 = assay: cells; type: functional, cell-based; conditions: Homo sapiens;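 further: growth inhibition of NCI-H345 cells measured with a cell viability assay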
Description: SANGER: Inhibition of human NCI-H345 cell growth in a cell viability assay.

NCI-H460 = assay: cells; type: functional, cell-based, Homo sapiens; conditions: Homo sapiens, NCI-H460;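 further: cell viability assay scoring growth inhibition of human NCI-H460 cells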
Description: SANGER: Inhibition of human NCI-H460 cell growth in a cell viability assay.

NCI-H64 = assay: cells; type: functional, cell-based; conditions: Homo sapiens;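 further: growth inhibition of NCI-H64 cells, read out with a cell viability assay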
Description: SANGER: Inhibition of human NCI-H64 cell growth in a cell viability assay.

NCI-H748 = assay: cells; type: functional, cell-based; conditions: Homo sapiens;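 further: growth inhibition of NCI-H748 cells, measured by a cell viability assay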
Description: SANGER: Inhibition of human NCI-H748 cell growth in a cell viability assay.

NCI-H889 = assay: cells; type: functional, cell-based; conditions: Homo sapiens;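 further: cell growth inhibition of the cell line, read out with a viability assay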
Description: SANGER: Inhibition of human NCI-H889 cell growth in a cell viability assay.

REH = assay: cells; type: functional, cell-based; conditions: Homo sapiens;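 further: growth inhibition of REH cells determined with a cell viability read-out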
Description: SANGER: Inhibition of human REH cell growth in a cell viability assay.

RPMI 8402 = assay: SANGER: Inhibition of human RPMI-8402 cell growth in a cell viability assay.; type: functional, cell-based
SCC-3 = assay: cells; type: functional, cell-based; conditions: Homo sapiens;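 further: cell viability assay measuring inhibition of SCC-3 cell growth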
Description: SANGER: Inhibition of human SCC-3 cell growth in a cell viability assay.

SCLC-21H = assay: cells; type: functional, cell-based; conditions: Homo sapiens;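 further: growth inhibition of cultured human SCLC-21H cells, read out with a cell viability assay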
Description: SANGER: Inhibition of human SCLC-21H cell growth in a cell viability assay.

SIMA = assay: cells; type: functional, cell-based, Homo sapiens; conditions: Homo sapiens, SIMA;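 further: growth inhibition of SIMA cells, measured with a cell viability readout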
Description: SANGER: Inhibition of human SIMA cell growth in a cell viability assay.

SJRH30 = assay: cells; type: functional, cell-based; conditions: Homo sapiens;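 further: growth inhibition of human SJRH30 cells, read out with a cell viability assay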
Description: SANGER: Inhibition of human SJRH30 cell growth in a cell viability assay.

SK-MM-2 = assay: cells; type: functional, cell-based; conditions: Homo sapiens;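 further: growth inhibition of human SK-MM-2 cells, read out with a cell viability assay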
Description: SANGER: Inhibition of human SK-MM-2 cell growth in a cell viability assay.

ST486 = assay: SANGER: Inhibition of human ST486 cell growth in a cell viability assay.; type: functional, cell-based
SUP-T1 = assay: cells; type: functional, cell-based; conditions: Homo sapiens;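 further: growth inhibition of human SUP-T1 cells, read out as cell viability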
Description: SANGER: Inhibition of human SUP-T1 cell growth in a cell viability assay.

ARH-77 = assay: cells; type: functional, cell-based; conditions: Homo sapiens;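 further: growth inhibition of ARH-77 cells, read out by a cell viability assay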
Description: SANGER: Inhibition of human ARH-77 cell growth in a cell viability assay.

BC-3 = assay: cells; type: functional, cell-based; conditions: Homo sapiens;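 further: cell viability assay measuring growth inhibition of human BC-3 cells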
Description: SANGER: Inhibition of human BC-3 cell growth in a cell viability assay.

BL-41 = assay: cells; type: functional, cell-based; conditions: Homo sapiens;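 further: growth inhibition of human BL-41 cells, read out with a cell viability assay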
Description: SANGER: Inhibition of human BL-41 cell growth in a cell viability assay.

CA46 = assay: cells; type: functional, cell-based; conditions: Homo sapiens;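 further: growth inhibition of human CA46 cells, read out by a cell viability assay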
Description: SANGER: Inhibition of human CA46 cell growth in a cell viability assay.

CAL-148 = assay: cells; type: functional, cell-based; conditions: Homo sapiens
Description: SANGER: Inhibition of human CAL-148 cell growth in a cell viability assay.

TE-15 = assay: cells; type: functional, cell-based; conditions: Homo sapiens;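 further: cell viability readout of growth inhibition in TE-15 cells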
Description: SANGER: Inhibition of human TE-15 cell growth in a cell viability assay.

TE-441-T = assay: cells; type: functional, cell-based; conditions: Homo sapiens
Description: SANGER: Inhibition of human TE-441-T cell growth in a cell viability assay.

THP-1 = assay: cells; type: functional, cell-based; conditions: Homo sapiens;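 further: growth inhibition of THP-1 cells, read out via a cell viability assay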
Description: SANGER: Inhibition of human THP-1 cell growth in a cell viability assay.

CHP-126 = assay: cells; type: functional, cell-based; conditions: Homo sapiens
Description: SANGER: Inhibition of human CHP-126 cell growth in a cell viability assay.

EW-22 = assay: cells; type: functional, cell-based; conditions: Homo sapiens;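 further: growth inhibition of the EW-22 cell line, measured with a cell viability readout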
Description: SANGER: Inhibition of human EW-22 cell growth in a cell viability assay.

Kasumi 1 = assay: cells; type: functional, cell-based; conditions: Homo sapiens;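 further: growth inhibition of human Kasumi-1 cells, read out by a cell viability assay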
Description: SANGER: Inhibition of human KASUMI-1 cell growth in a cell viability assay.

Compound `C[C@]1(O)C[C@@H](c2nc(-c3ccc4ccc(-c5ccccc5)nc4c3)c3c(N)nccn32)C1` [LINSITINIB] has an IC50 (DG-75) greater than 2560 nM, an IC50 (DMS-153) greater than 2560 nM and an IC50 (EB-3) greater than 2560 nM. For the same compound, the IC50 (EVSA-T) was greater than 2560 nM, the IC50 (G-361) was greater than 2560 nM and the IC50 (GDM-1) was 137 nM. The IC50 (HT55) was greater than 2560 nM, the IC50 (IM-9) was greater than 2560 nM and the IC50 (K052) was greater than 2560 nM. The IC50 (KMS-12-PE) was greater than 2560 nM, the IC50 (LB647-SCLC) was 1770 nM and the IC50 (LOUCY) was greater than 2560 nM. It also gave an IC50 (LU-165) greater than 2560 nM, an IC50 (MEL-JUSO) of 1160 nM and an IC50 (MHH-CALL-2) greater than 2560 nM. It also gave an IC50 (MONO-MAC-6) greater than 2560 nM, an IC50 (NB1) greater than 2560 nM and an IC50 (NCI-H1417) greater than 2560 nM. The IC50 (NCI-H1436) was greater than 2560 nM, the IC50 (NCI-H1522) was greater than 2560 nM and the IC50 (NCI-H1694) was greater than 2560 nM. For the same compound, the IC50 (NCI-H1703) was greater than 2560 nM, the IC50 (NCI-H2009) was greater than 2560 nM and the IC50 (NCI-H2081) was greater than 2560 nM. It also gave an IC50 (NCI-H2141) greater than 2560 nM, an IC50 (NCI-H2171) of 1780 nM and an IC50 (NCI-H345) greater than 2560 nM. It also gave an IC50 (NCI-H460) greater than 2560 nM, an IC50 (NCI-H64) greater than 2560 nM and an IC50 (NCI-H748) greater than 2560 nM. For the same compound, the IC50 (NCI-H889) was greater than 2560 nM, the IC50 (REH) was greater than 2560 nM and the IC50 (RPMI 8402) was greater than 2560 nM. It also gave an IC50 (SCC-3) greater than 2560 nM, an IC50 (SCLC-21H) greater than 2560 nM and an IC50 (SIMA) of 1070 nM. For the same compound, the IC50 (SJRH30) was 508 nM, the IC50 (SK-MM-2) was 655 nM and the IC50 (ST486) was greater than 2560 nM. The IC50 (SUP-T1) was greater than 2560 nM, the IC50 (ARH-77) was greater than 2560 nM and the IC50 (BC-3) was greater than 2560 nM. The IC50 (BL-41) was greater than 2560 nM, the IC50 (CA46) was greater than 2560 nM and the IC50 (CAL-148) was greater than 2560 nM. The IC50 (TE-15) was greater than 2560 nM, the IC50 (TE-441-T) was greater than 2560 nM and the IC50 (THP-1) was greater than 2560 nM. The IC50 (CHP-126) was greater than 2560 nM.
`CCc1nc(N)nc(N)c1-c1ccc(Cl)cc1` [PYRIMETHAMINE] showed an IC50 (DG-75) of 14600 nM, an IC50 (DMS-153) greater than 20000 nM and an IC50 (EB-3) greater than 20000 nM. For the same compound, the IC50 (EVSA-T) was greater than 20000 nM, the IC50 (EW-22) was greater than 20000 nM and the IC50 (GDM-1) was greater than 20000 nM. For the same compound, the IC50 (IM-9) was greater than 20000 nM, the IC50 (K052) was greater than 20000 nM and the IC50 (Kasumi 1) was greater than 20000 nM. For the same compound, the IC50 (KMS-12-PE) was greater than 20000 nM, the IC50 (LB647-SCLC) was greater than 20000 nM and the IC50 (LOUCY) was 10900 nM. The IC50 (LU-165) was greater than 20000 nM, the IC50 (MHH-CALL-2) was greater than 20000 nM and the IC50 (MONO-MAC-6) was 16300 nM. For the same compound, the IC50 (NB1) was greater than 20000 nM, the IC50 (NCI-H1417) was greater than 20000 nM and the IC50 (NCI-H1436) was greater than 20000 nM. The IC50 (NCI-H1522) was greater than 20000 nM, the IC50 (NCI-H1694) was greater than 20000 nM and the IC50 (NCI-H2081) was greater than 20000 nM. The IC50 (NCI-H2141) was greater than 20000 nM, the IC50 (NCI-H2171) was greater than 20000 nM and the IC50 (NCI-H345) was greater than 20000 nM. The IC50 (NCI-H64) was greater than 20000 nM, the IC50 (NCI-H748) was greater than 20000 nM and the IC50 (NCI-H889) was greater than 20000 nM. For the same compound, the IC50 (REH) was greater than 20000 nM, the IC50 (RPMI 8402) was 8120 nM and the IC50 (SCC-3) was 1840 nM. For the same compound, the IC50 (SCLC-21H) was greater than 20000 nM, the IC50 (SIMA) was greater than 20000 nM and the IC50 (SK-MM-2) was greater than 20000 nM. It also gave an IC50 (ST486) of 9310 nM, an IC50 (SUP-T1) greater than 20000 nM and an IC50 (ARH-77) of 19500 nM. For the same compound, the IC50 (BC-3) was 19500 nM, the IC50 (BL-41) was greater than 20000 nM and the IC50 (CA46) was greater than 20000 nM. For the same compound, the IC50 (CAL-148) was greater than 20000 nM, the IC50 (TE-15) was greater than 20000 nM and the IC50 (TE-441-T) was greater than 20000 nM. The IC50 (THP-1) was greater than 20000 nM and the IC50 (CHP-126) was greater than 20000 nM.
